Laboratory results: patent US12629363B2, “Prophylaxis and treatment of angioedema” (PHARVARIS GMBH, priority 2020, dated 2026)

What was measured:
[1] = biological target: T1, mouse B2 receptor (Mus musculus, UniProt P32299); assay: Antagonist potency in cells expressing mouse B2 receptor; assay type: cell-based; settings: compared with human B2 receptor
T1 construct: expressed in transfected cells
T1 sequence (P32299 1-392): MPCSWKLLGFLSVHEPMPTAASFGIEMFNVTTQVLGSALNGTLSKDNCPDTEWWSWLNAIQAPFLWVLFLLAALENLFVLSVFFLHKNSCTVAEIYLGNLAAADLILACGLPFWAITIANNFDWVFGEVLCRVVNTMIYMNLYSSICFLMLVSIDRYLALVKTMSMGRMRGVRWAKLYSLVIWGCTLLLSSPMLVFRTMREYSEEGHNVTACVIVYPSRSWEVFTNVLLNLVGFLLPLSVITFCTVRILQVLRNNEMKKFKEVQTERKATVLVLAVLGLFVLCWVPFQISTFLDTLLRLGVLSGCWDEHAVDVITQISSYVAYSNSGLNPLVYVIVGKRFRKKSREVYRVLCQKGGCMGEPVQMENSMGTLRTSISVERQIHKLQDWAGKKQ
Text: (§1) The bradykinin B2 receptor is well known for its species selective pharmacology (Paquet et al., Br. J. Pharmacol. (126), 1083-1090, 1999 (DOI: 10.1038/sj.bjp.0702403); Burgess et al., Br. J. Pharmacol. (129), 77-86, 2000 (DOI: 10.1038/sj.bjp.0703012)). […] Pharmacol. 11:916; DOI: 10.3389/fphar.2020.00916.

[2] = Single ascending dose study in healthy volunteers, safety and tolerability (Example 2); assay type: in vivo, human
Protocol: Safety was assessed by physical examination, vital signs, adverse events, safety laboratory and electrocardiogram (ECG) until 72 h post-dosing.

[3] = biological target: T2, cynomolgus monkey B2 receptor (Macaca fascicularis, UniProt A0A7N9CWN6); assay: Antagonist potency in cells expressing cynomolgus monkey B2 receptor; assay type: cell-based; settings: read-out: Kb value to antagonize BK activation
T2 sequence (A0A7N9CWN6 1-391): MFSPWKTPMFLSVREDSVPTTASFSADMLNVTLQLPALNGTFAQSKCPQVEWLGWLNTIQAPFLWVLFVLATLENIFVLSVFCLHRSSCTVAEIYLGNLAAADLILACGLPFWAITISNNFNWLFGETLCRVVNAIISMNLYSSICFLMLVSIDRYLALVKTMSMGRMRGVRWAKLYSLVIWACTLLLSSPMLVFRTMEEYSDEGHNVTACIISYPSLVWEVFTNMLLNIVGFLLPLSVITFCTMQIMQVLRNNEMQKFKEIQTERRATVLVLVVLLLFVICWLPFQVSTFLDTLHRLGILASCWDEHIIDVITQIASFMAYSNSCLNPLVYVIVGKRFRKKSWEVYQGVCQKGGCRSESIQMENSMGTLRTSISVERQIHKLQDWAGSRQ
Text: as §1

[4] = system: dog B2 receptor; assay: Antagonist potency in cells expressing dog B2 receptor; assay type: cell-based; settings: compared with human B2 receptor
Text: as §1

[5] = Population 2-compartment PK model with oral absorption (BK challenge study); assay type: in vivo, human; settings: population PK model parameter estimate (CV %)
Protocol: A PK/PD analysis using the same approach as in the icatibant evaluation was conducted. […] PK was analyzed using a two-compartment body model with first-order oral absorption and a lag time; results are shown in Table 4. For the PK/PD model a simple Emax-model with a direct link was utilized. The PK/PD model was used to simulate PK profiles (N=1000) and calculate probability of durations of effect as well as to visualize effect-time profiles; see FIGS. 4 and 5.

[6] = biological target: T3, rat B2 receptor (Rattus norvegicus, UniProt P25023); assay: Antagonist potency in cells expressing rat B2 receptor; assay type: cell-based; settings: compared with human B2 receptor
T3 construct: expressed in transfected cells
T3 sequence (P25023 1-396): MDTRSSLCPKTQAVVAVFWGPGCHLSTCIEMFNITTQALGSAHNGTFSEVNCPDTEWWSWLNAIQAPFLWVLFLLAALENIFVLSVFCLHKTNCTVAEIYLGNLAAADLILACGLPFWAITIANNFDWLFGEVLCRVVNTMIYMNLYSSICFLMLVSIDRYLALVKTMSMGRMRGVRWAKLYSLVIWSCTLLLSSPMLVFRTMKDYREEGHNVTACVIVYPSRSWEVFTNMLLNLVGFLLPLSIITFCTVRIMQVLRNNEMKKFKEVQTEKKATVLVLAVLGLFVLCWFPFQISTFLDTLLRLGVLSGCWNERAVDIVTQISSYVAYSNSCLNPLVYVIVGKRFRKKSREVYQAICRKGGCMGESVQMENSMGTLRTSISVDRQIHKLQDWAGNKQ
Text: as §1

[7] = Ascending dose study 22-50 mg in healthy volunteers, PK (Example 4); assay type: in vivo, human
[8] = 22 mg, after HCHF breakfast, N = 6
[9] = 22 to 50 mg (factor 2.27 increase), after a standardized breakfast

In the case of [2H][C@@](C)(NC(=O)COC(F)F)c1cc(F)cc(Cl)c1COc1cccc2c(-c3ncnn3C)cc(C)nc12 [compound of formula (I)], the “fold less potent towards the mouse B2 receptor” value [1] was “more than 3000 fold”, the Any adverse effects ([2]; 1 mg, fasted, N = 6) was 2 (33.3%) n (%) and the “Any related adverse effects” value ([2]; 1 mg, fasted, N = 6) was 0 n (%). For the same molecule, the “Any serious adverse effects” value ([2]; 1 mg, fasted, N = 6) was 0 n (%), the Any adverse effects ([2]; 2 mg, fasted, N = 6) was 1 (16.7%) n (%) and the “Any related adverse effects” value ([2]; 2 mg, fasted, N = 6) was 0 n (%). For the same molecule, the “Any serious adverse effects” value ([2]; 2 mg, fasted, N = 6) was 0 n (%), the Any adverse effects ([2]; 4.5 mg, fasted, N = 6) was 1 (16.7%) n (%) and the “Any related adverse effects” value ([2]; 4.5 mg, fasted, N = 6) was 0 n (%). The “Any serious adverse effects” value ([2]; 4.5 mg, fasted, N = 6) was 0 n (%), the Any adverse effects ([2]; 12 mg, fasted, N = 14) was 5 (35.7%) n (%) and the “Any related adverse effects” value ([2]; 12 mg, fasted, N = 14) was 2 (14.3%) n (%). The “Any serious adverse effects” value ([2]; 12 mg, fasted, N = 14) was 0 n (%), the Any adverse effects [2, 8] was 1 (16.7%) n (%) and the “Any related adverse effects” value [2, 8] was 0 n (%). The “Any serious adverse effects” value [2, 8] was 0 n (%), the Any adverse effects ([2]; 22 mg, fasted, N = 14) was 2 (14.3%) n (%) and the “Any related adverse effects” value ([2]; 22 mg, fasted, N = 14) was 1 (7.1%) n (%). The “Any serious adverse effects” value ([2]; 22 mg, fasted, N = 14) was 0 n (%), the “subjects with treatment-related adverse events” value ([2]; 12 or 22 mg, gastrointestinal, mild severity) was “three” and the “blood pressure fluctuations and orthostatic hypotension” value ([2]; single oral doses up to 22 mg) was “no clinically relevant fluctuations of blood pressure and no orthostatic hypotension”. The “changes in hematology, clinical chemistry, vital signs, or ECG” value ([2]; single oral doses up to 22 mg) was “no apparent trends or dose-related changes”, the safety and tolerability ([2]; single oral doses up to 22 mg) was “safe and well tolerated” and the Kb [3] was 1.42 nM. The “fold less potent towards the dog B2 receptor” value [4] was 18,000 fold, the CL/F apparent clearance [5] was 34.5 (5.9%) L/h and the “Ka first order absorption rate constant” value [5] was 7.97 (25.1%) 1/h. The “Q/F apparent inter-compartmental clearance” value [5] was 10.7 (15.8%) L/h, the Tlag lag time [5] was 0.181 (9.9%) h and the “V2/F apparent volume for the central compartment” value [5] was 101 (4.5%) L. The “V3/F apparent volume for the peripheral compartment” value [5] was 35.9 (10.7%) L, the “fold less potent in antagonizing the rat B2 receptor” value [6] was “more than 1000 fold” and the “fold increase for mean AUC0-24h” value [7, 9] was 2.39 fold. For the same molecule, the “fold increase for mean Cmax” value [7, 9] was 2.37 fold, the “dose proportionality of PK” value ([7]; 22 to 50 mg after a standardized breakfast) was “dose-proportional PK” and the “change in AUCinf after a standardized breakfast” value ([7]; compared to fasting conditions) was “did not show a significant change”. For the same molecule, the “decrease in Cmax after a standardized breakfast” value ([7]; compared to fasting conditions) was 40-50% and the “C12h and C24h plasma concentration, fed vs fasting” value ([7]; human, in vivo) was “higher under fed conditions”.
